Laboratory results taken from patent US11753407B2, “Compounds for treating spinal muscular atrophy” (PTC Therapeutics, Inc., priority 2012, dated 2023).

Tests used:
[1] = test system: Smn protein in SMA patient fibroblast cells (GM03813); experiment: Smn protein assay in cultured cells (SMN HTRF); format: cell-based, human; details: SMA patient fibroblast cells, 48 hours; for EC1.5x for Smn protein expression: 7-point concentration curve, SMN HTRF, concentration producing 1.5 times Smn protein vs DMSO vehicle control; for maximum fold (Fold) increase of Smn protein: 7-point concentration data, fold relative to vehicle control
Summary of the method: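 Read-out: HTRF 665/620 nm ratio, blank-subtracted as ΔF, then expressed as fold over DMSO vehicle. Fibroblasts from SMA patients were exposed to compounds for 48 h (7 points, 3.16-fold steps, triplicates). Values are EC1.5× and maximum fold Smn increase.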

[2] = test system: SMN2 minigene mRNA (SMN2-A minigene) in HEK293H cells; experiment: SMN2 minigene mRNA splicing RT-qPCR assay in cultured cells; format: cell-based, human; details: Homo sapiens, HEK293-H; concentration increasing full length SMN2 mRNA 1.5-fold relative to vehicle-treated cells; HEK293H cells with SMN2-A minigene, 24 hours, 7-point concentration data; read-out: EC1.5x for production of full length SMN2 mRNA
Summary of the method: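 Read-out: minigene-specific full-length (exon 7-included) SMN2 mRNA by one-step multiplex RT-qPCR, normalized to GAPDH and divided by vehicle-treated level. Stable SMN2-A minigene HEK293H cells, 24 h compound exposure, 7 concentrations in duplicate. EC1.5× = concentration raising FL mRNA 1.5-fold.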

Row | SMILES | melting point | EC1.5x for Smn protein expression [1] | maximum fold (Fold) increase of Smn protein [1] | EC (1.5-fold increase) [2] [µM]
1 | Cc1cn2cc(-c3cc(=O)n4cc(N5CCN6CCC[C@H]6C5)ccc4n3)cc(F)c2n1 [Compound 271, 2-(8-fluoro-2-methylimidazo[1,2-a]pyridin-6-yl)-7-[(8aS)-hexahydropyrrolo[1,2-a]pyrazin-2(1H)-yl]-4H-pyrido[1,2-a]pyrimidin-4-one] | 270 to 274 °C | **** (an EC1.5x≤0.3 μM is indicated by four stars (****)) | ***** (a fold increase >1.65 is indicated by five stars (*****)) | < 0.1
2 | Cc1cn2cc(-c3cc(=O)n4cc(N5CCN6CCC[C@@H]6C5)ccc4n3)cc(F)c2n1 [Compound 272, 2-(8-fluoro-2-methylimidazo[1,2-a]pyridin-6-yl)-7-[(8aR)-hexahydropyrrolo[1,2-a]pyrazin-2(1H)-yl]-4H-pyrido[1,2-a]pyrimidin-4-one] | 277 to 280 °C | **** (an EC1.5x≤0.3 μM is indicated by four stars (****)) | ***** (a fold increase >1.65 is indicated by five stars (*****)) | < 0.1
3 | Cc1cn2cc(-c3cc(=O)n4cc(N5CC[C@@H](N(C)C)C5)ccc4n3)cc(F)c2n1 [Compound 274, 7-[(3R)-3-(dimethylamino)pyrrolidin-1-yl]-2-(8-fluoro-2-methylimidazo[1,2-a]pyridin-6-yl)-4H-pyrido[1,2-a]pyrimidin-4-one] | 300 °C (dec.) | **** (an EC1.5x≤0.3 μM is indicated by four stars (****)) | ***** (a fold increase >1.65 is indicated by five stars (*****)) | < 0.1
4 | Cc1cn2cc(-c3cc(=O)n4cc(N5CC[C@H](N(C)C)C5)ccc4n3)cc(F)c2n1 [Compound 275, 7-[(3S)-3-(dimethylamino)pyrrolidin-1-yl]-2-(8-fluoro-2-methylimidazo[1,2-a]pyridin-6-yl)-4H-pyrido[1,2-a]pyrimidin-4-one] | 294 to 297 °C | **** (an EC1.5x≤0.3 μM is indicated by four stars (****)) | ***** (a fold increase >1.65 is indicated by five stars (*****)) | < 0.1
5 | COc1ccc(-c2ccc3nc(N4CC[C@@H](N(C)C)C4)cc(=O)n3c2)cc1F [Compound 277, 2-[(3R)-3-(dimethylamino)pyrrolidin-1-yl]-7-(3-fluoro-4-methoxyphenyl)-4H-pyrido[1,2-a]pyrimidin-4-one] | 167 to 170 °C |  | *** (a fold increase between >1.35 and ≤1.5 is indicated by three stars (***)) | 1 to 3
6 | COc1ccc(-c2ccc3nc(N4CC[C@H](N(C)C)C4)cc(=O)n3c2)cc1F [Compound 278, 2-[(3S)-3-(dimethylamino)pyrrolidin-1-yl]-7-(3-fluoro-4-methoxyphenyl)-4H-pyrido[1,2-a]pyrimidin-4-one] | 167 to 169 °C |  | ** (a fold increase between >1.2 and ≤1.35 is indicated by two stars (**)) | 1 to 3
7 | COc1ccc(-c2cc(=O)n3cc(N4C[C@H]5CN(CCO)C[C@H]5C4)ccc3n2)cc1F [Compound 279, 2-(3-fluoro-4-methoxyphenyl)-7-[(3aR,6aS)-5-(2-hydroxyethyl)hexahydropyrrolo[3,4-c]pyrrol-2(1H)-yl]-4H-pyrido[1,2-a]pyrimidin-4-one] | 180 to 186 °C |  | ** (a fold increase between >1.2 and ≤1.35 is indicated by two stars (**)) | 0.1 to 0.3
8 | COc1ccc(-c2cc(=O)n3cc(N4C[C@@H]5CCN(C)[C@@H]5C4)ccc3n2)cc1F [Compound 280, 2-(3-fluoro-4-methoxyphenyl)-7-[(3aS,6aS)-1-methylhexahydropyrrolo[3,4-b]pyrrol-5(1H)-yl]-4H-pyrido[1,2-a]pyrimidin-4-one] | 207 to 211 °C |  | * (A maximum fold increase of ≤1.2 is indicated by one star (*)) | 1 to 3
9 | COc1ccc(-c2cc(=O)n3cc(N4C[C@@H]5CN(C(C)C)C[C@@H]5C4)ccc3n2)cc1F [Compound 281, 2-(3-fluoro-4-methoxyphenyl)-7-[(3aR,6aS)-5-(propan-2-yl)hexahydropyrrolo[3,4-c]pyrrol-2(1H)-yl]-4H-pyrido[1,2-a]pyrimidin-4-one] | 189 to 192 °C |  | ** (a fold increase between >1.2 and ≤1.35 is indicated by two stars (**)) | 0.1 to 0.3
10 | COc1ccc(-c2cc(=O)n3cc(N4CC[C@@H](N(C)C)C4)ccc3n2)cc1F [Compound 282, 7-[(3R)-3-(dimethylamino)pyrrolidin-1-yl]-2-(3-fluoro-4-methoxyphenyl)-4H-pyrido[1,2-a]pyrimidin-4-one] | 188 to 191 °C |  | ** (a fold increase between >1.2 and ≤1.35 is indicated by two stars (**)) | 0.3 to 1

Further lines, with some results ahead:

Row | melting point | SMILES | EC1.5x for Smn protein expression [1] | maximum fold (Fold) increase of Smn protein [1] | EC (1.5-fold increase) [2] [µM]
11 | 200 to 202 °C | Cc1nc2ccc(-c3cc(=O)n4cc(N5CCNC(C)(C)C5)ccc4n3)cc2s1 [Compound 283, 7-(3,3-dimethylpiperazin-1-yl)-2-(2-methyl-1,3-benzothiazol-6-yl)-4H-pyrido[1,2-a]pyrimidin-4-one] | **** (an EC1.5x≤0.3 μM is indicated by four stars (****)) | **** (a fold increase between >1.5 and ≤1.65 is indicated by four stars (****)) | < 0.1
12 | 254 to 256 °C | Cc1nc2ccc(-c3cc(=O)n4cc(N5CCN6CCC[C@@H]6C5)ccc4n3)cc2s1 [Compound 284, 7-[(8aR)-hexahydropyrrolo[1,2-a]pyrazin-2(1H)-yl]-2-(2-methyl-1,3-benzothiazol-6-yl)-4H-pyrido[1,2-a]pyrimidin-4-one] | *** (an EC1.5× between >0.3 μM and ≤1 μM is indicated by three stars (***)) | **** (a fold increase between >1.5 and ≤1.65 is indicated by four stars (****)) | 0.3 to 1
13 | 218 to 220 °C | Cc1nc2ccc(-c3cc(=O)n4cc(OC5CCNCC5)ccc4n3)cc2s1 [Compound 286, 2-(2-methyl-1,3-benzothiazol-6-yl)-7-(piperidin-4-yloxy)-4H-pyrido[1,2-a]pyrimidin-4-one] | *** (an EC1.5× between >0.3 μM and ≤1 μM is indicated by three stars (***)) | **** (a fold increase between >1.5 and ≤1.65 is indicated by four stars (****)) | 0.3 to 1
14 | 245 to 251 °C | Cc1cn2cc(-c3cc(=O)n4cc(N5CCNCC5)ccc4n3)cc(Cl)c2n1 [Compound 287, 2-(8-chloro-2-methylimidazo[1,2-a]pyridin-6-yl)-7-(piperazin-1-yl)-4H-pyrido[1,2-a]pyrimidin-4-one] | **** (an EC1.5x≤0.3 μM is indicated by four stars (****)) | ***** (a fold increase >1.65 is indicated by five stars (*****)) | < 0.1
15 | 289 to 295 °C | Cc1cn2cc(-c3cc(=O)n4cc(N5C[C@@H](C)N[C@@H](C)C5)ccc4n3)cc(Cl)c2n1 [Compound 288, 2-(8-chloro-2-methylimidazo[1,2-a]pyridin-6-yl)-7-[(3R,5S)-3,5-dimethylpiperazin-1-yl]-4H-pyrido[1,2-a]pyrimidin-4-one] | **** (an EC1.5x≤0.3 μM is indicated by four stars (****)) | ***** (a fold increase >1.65 is indicated by five stars (*****)) | < 0.1
16 | 239 to 244 °C | Cc1cn2cc(-c3cc(=O)n4cc(N5CCCN(C)CC5)ccc4n3)cc(Cl)c2n1 [Compound 289, 2-(8-chloro-2-methylimidazo[1,2-a]pyridin-6-yl)-7-(4-methyl-1,4-diazepan-1-yl)-4H-pyrido[1,2-a]pyrimidin-4-one] | **** (an EC1.5x≤0.3 μM is indicated by four stars (****)) | **** (a fold increase between >1.5 and ≤1.65 is indicated by four stars (****)) | < 0.1
17 | 236 to 239 °C | Cc1cn2cc(-c3cc(=O)n4cc(N5CCN[C@H](C)C5)ccc4n3)cc(Cl)c2n1 [Compound 290, 2-(8-chloro-2-methylimidazo[1,2-a]pyridin-6-yl)-7-[(3R)-3-methylpiperazin-1-yl]-4H-pyrido[1,2-a]pyrimidin-4-one] | **** (an EC1.5x≤0.3 μM is indicated by four stars (****)) | ***** (a fold increase >1.65 is indicated by five stars (*****)) | < 0.1
18 | 236 to 239 °C | Cc1cn2cc(-c3cc(=O)n4cc(N5CCN[C@@H](C)C5)ccc4n3)cc(Cl)c2n1 [Compound 291, 2-(8-chloro-2-methylimidazo[1,2-a]pyridin-6-yl)-7-[(3S)-3-methylpiperazin-1-yl]-4H-pyrido[1,2-a]pyrimidin-4-one] | **** (an EC1.5x≤0.3 μM is indicated by four stars (****)) | ***** (a fold increase >1.65 is indicated by five stars (*****)) | < 0.1
